Source: patent US9790169B2, “IDO inhibitors” (BRISTOL-MYERS SQUIBB COMPANY, priority 2015, dated 2017)

Molecular target: human IDO1 (Homo sapiens, UniProt P14902)
Assay: Assessment of human IDO-1 inhibitory activity in Hela cells (Interferon-gamma stimulated HeLa cells, Ehrlich reagent, absorbance 490 nm)
Type: cell-based
Parameters: endogenous in cells; host or cells: HeLa cells stimulated with interferon-gamma
Settings: Hela Human IDO-1 cellular assay
Procedure, shortened: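 IDO activity induced by 18 h IFN-γ (human 10 ng/ml or murine 5 ng/ml, final) after 1 h compound pre-treatment of HeLa cells at 37 °C. Supernatant kynurenine detected via Ehrlich reagent absorbance at 490 nm following 3% TCA at 50 °C; IC50 set against no-IFN-γ and untreated-stimulated controls.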

human IDO1, sequence (P14902 whole entry): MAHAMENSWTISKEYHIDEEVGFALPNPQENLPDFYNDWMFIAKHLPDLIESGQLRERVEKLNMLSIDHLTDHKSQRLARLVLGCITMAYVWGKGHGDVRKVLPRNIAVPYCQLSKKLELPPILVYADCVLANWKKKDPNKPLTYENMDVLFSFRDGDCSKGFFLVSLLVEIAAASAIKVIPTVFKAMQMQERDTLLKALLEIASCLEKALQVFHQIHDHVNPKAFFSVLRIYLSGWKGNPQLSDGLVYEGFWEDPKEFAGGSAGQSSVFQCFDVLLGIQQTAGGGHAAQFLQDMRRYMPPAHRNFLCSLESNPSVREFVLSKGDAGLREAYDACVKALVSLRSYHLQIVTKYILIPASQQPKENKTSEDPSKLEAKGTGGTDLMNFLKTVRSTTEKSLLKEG

| Structure (SMILES) | IC50 [nM] |
| --- | --- |
| CCN(c1ccc([C@@H](COC)CC(=O)O)cc1Nc1cc(C)c(C#N)cn1)C1CCOCC1 (single isomer, unassigned) [Example 384] | > 50 |
| CCN(c1ccc([C@@H](COC)CC(=O)O)cc1Nc1cccc(C#N)c1)C1CCOCC1 (single isomer, unassigned) [Example 368] | < 50 |
| CCC(CC(=O)O)c1ccc(N(CC(F)F)C2CCOCC2)c(Nc2ccc(Cl)cc2)c1 (single isomer, unassigned) [Example 318 Enantiomer 1, 3-(3-((4-Chlorophenyl)amino)-4-((2,2-difluoroethyl)(tetrahydro-2H-pyran-4-yl)amino)phenyl)pentanoic acid] | < 5 |
| COCCN(c1ccc(C(COC)CC(=O)O)cc1Nc1ccc(F)cc1)C1CCOCC1 (single isomer, unassigned) [Example 258, 3-(3-((4-fluorophenyl)amino)-4-((2-methoxyethyl)(tetrahydro-2H-pyran-4-yl)amino)phenyl)-4-methoxybutanoic acid] | < 50 |
| CCN(c1ccc(C(CC)(CC)CC(=O)O)cc1NC(=O)Nc1ccc(Cl)cc1F)C1CCOCC1 [Example 32, 3-(3-(3-(4-chloro-2-fluorophenyl)ureido)-4-(ethyl(tetrahydro-2H-pyran-4-yl)amino)phenyl)-3-ethylpentanoic acid] | < 5 |
| CC[C@@H](CC(=O)O)c1ccc(N(CC)C2CCOCC2)c(Nc2cnc(OC)cn2)c1 (single isomer, unassigned) [Example 464] | < 5 |
| CCOc1ncc(Nc2cc(C3(CC(=O)O)CCOCC3)ccc2N(CC)C2CCOCC2)cn1 [Example 153, 2-(4-(3-((2-Ethoxypyrimidin-5-yl)amino)-4-(ethyl(tetrahydro-2H-pyran-4-yl)amino)phenyl)tetrahydro-2H-pyran-4-yl)acetic acid] | > 50 |
| CCC(CC(=O)O)c1cc(F)c(N(CC)C2CCOCC2)c(Nc2cnc(OC)nc2)c1 (single isomer, unassigned) [Example 135, 3-(4-(ethyl(tetrahydro-2H-pyran-4-yl)amino)-3-fluoro-5-((2-methoxypyrimidin-5-yl)amino)phenyl) pentanoic acid] | < 50 |
| CCC(CC(=O)O)c1ccc(N2CCOCC2)c(Nc2ccc(C#N)cc2)c1 (single isomer, unassigned) [Example 6 Enantiomer 1, 3-(3-((4-Cyanophenyl)amino)-4-morpholinophenyl)pentanoic acid] | > 50 |
| CCCN(c1ccc(C(C)(C)CC(=O)O)cc1Nc1cnc(OCC)nc1)C1CCS(=O)(=O)CC1 [Example 188, 3-(4-((1,1-dioxidotetrahydro-2H-thiopyran-4-yl)(propyl)amino)-3-((2-ethoxypyrimidin-5-yl)amino)phenyl)-3-methylbutanoic acid] | > 50 |
| CCN(c1ccc([C@@H](COC)CC(=O)O)cc1NC(=O)Nc1ccc(Cl)cc1Cl)C1CCOCC1 (single isomer, unassigned) [Example 430] | < 50 |
| CCOc1ncc(Nc2cc([C@H](CC(=O)O)C(F)(F)F)ccc2N(CC)C2CCOCC2)cn1 [Example 598, (S)-3-(3-((2-Ethoxypyrimidin-5-yl)amino)-4-(ethyl(tetrahydro-2H-pyran-4-yl)amino)phenyl)-4,4,4-trifluorobutanoic acid] | < 50 |
| CCN(c1ccc([C@@H](COC(C)C)CC(=O)O)cc1Nc1ccc(C#N)cc1)C1CCOCC1 (single isomer, unassigned) [Example 324] | < 50 |
| COCCN(c1ccc(C(C)(C)CC(=O)O)cc1Nc1ccc(C#N)cc1)C1CCOCC1 [Example 16, 3-(3-((4-cyanophenyl)amino)-4-((2-methoxyethyl)(tetrahydro-2H-pyran-4-yl)amino)phenyl)-3-methylbutanoic acid] | < 5 |
| CCCN(c1ccc(C(CC)CC(=O)O)cc1NC(=O)Nc1ccc(C)cc1)C1CCOCC1 (single isomer, unassigned) [Example 557 Enantiomer 2, 3-(4-(Propyl(tetrahydro-2H-pyran-4-yl)amino)-3-(3-(p-tolyl)ureido)phenyl)pentanoic acid] | < 5 |

The next lines start with the values.

| IC50 [nM] | Structure (SMILES) |
| --- | --- |
| < 50 | CCC1COCCN1c1ccc([C@H](COC)CC(=O)O)cc1Nc1ccc(C#N)c(F)c1 (single isomer, unassigned) [Example 1304] |
| < 50 | CCOc1ncc(Nc2cc(C(CC)CC(=O)O)ccc2N(C)C2CCOCC2)cn1 (single isomer, unassigned) [Example 869, 3-(3-((2-ethoxy-pyrimidin-5-yl)amino)-4-(methyl (tetrahydro-2H-pyran-4-yl)amino)phenyl) pentanoic acid] |
| < 50 | CCC1COCCN1c1ccc([C@@H](COC)CC(=O)O)cc1Nc1ccc(Cl)cc1 (single isomer, unassigned) [Example 1300] |
| < 5 | CCOc1ncc(Nc2cc(C(COC)CC(=O)O)ccc2N2CCC(c3ccccc3)CC2)cn1 (single isomer, unassigned) [Example 1354, 3-(3-((2-ethoxypyrimidin-5-yl)amino)-4-(4-phenylpiperidin-1-yl)phenyl)-4-methoxybutanoic acid] |
| < 5 | CCOc1ncc(Nc2cc([C@H](CC)CNS(=O)(=O)C(F)(F)F)ccc2N(CC)C2CCOCC2)cn1 [Example 1329, (S)-N-(2-(3-((2-ethoxypyrimidin-5-yl)amino)-4-(ethyl(tetrahydro-2H-pyran-4-yl)amino)phenyl)butyl)-1,1,1-trifluoromethanesulfonamide] |
| > 50 | CCNC(=O)NC[C@@H](CC)c1ccc(N(CC)C2CCOCC2)c(Nc2cnc(OCC)nc2)c1 [Example 1366, (S)-1-(2-(3-((2-Ethoxypyrimidin-5-yl)amino)-4-(ethyl(tetrahydro-2H-pyran-4-yl)amino)phenyl)butyl)-3-ethylurea] |
| > 50 | CCC1COCCN1c1ccc([C@@H](COC)CC(=O)O)cc1Nc1ccc(F)cc1 (single isomer, unassigned) [Example 1301] |
| < 5 | CCN(c1ccc(C(C)CC(=O)O)cc1Nc1ccc2c(c1)OC(F)(F)O2)C1CCOCC1 (single isomer, unassigned) [Example 628, 3-(3-((2,2-difluorobenzo[d] [1,3]dioxol-5-yl)amino)-4-(ethyl(tetrahydro-2H-pyran-4-yl)amino)phenyl)butanoic acid] |
| < 50 | COCC(CC(=O)O)c1ccc(N2CCOC[C@@H]2C(C)C)c(Nc2ccc(C#N)cc2)c1 (single isomer, unassigned) [Example 929] |
| > 50 | COCC(CC(=O)O)c1ccc(N2CCOC[C@@H]2C(C)C)c(Nc2ccc(C#N)cc2)c1 (single isomer, unassigned) [Example 933] |
| < 50 | CCOc1ncc(Nc2cc([C@H](CC)Cc3ncno3)ccc2N(CC)C2CCOCC2)cn1 [Example 1337, (R)-4-(1-(1,2,4-Oxadiazol-5-yl)butan-2-yl)-N2-(2-ethoxypyrimidin-5-yl)-N1-ethyl-N1-(tetrahydro-2H-pyran-4-yl)benzene-1,2-diamine] |
| < 5 | CC[C@H](CC(=O)O)c1ccc(N(CC)C2CCOCC2)c(Nc2cnc(C)nc2)c1 (single isomer, unassigned) [Example 1363] |
| > 50 | CCOc1ncc(Nc2cc([C@@H](COC)CC(=O)O)ccc2N2CCOCC2CC)cn1 (single isomer, unassigned) [Example 1285] |
